Experimental data as given in patent US9409952B2, “Peptide-compound cyclization method” (Chugai Seiyaku Kabushiki Kaisha, priority 2011, dated 2016).
Where two headings read alike, the source gives them in different places. Starred links: 1 amine or outer side, 2 acyl side, 3 side chain; linkers in the order of their positions; H or OH if unused. Positions of bridges follow the written chain, without caps; N, C: chain ends. Non-standard residues stand in square brackets, D forms with d. Residues, ends and D or L forms follow the SMILES beside them. *: point of attachment. NMeF = CN[C@@H](Cc1ccccc1)C(=O)O; NMeGABA = CN(CCCC(=O)[*:2])[*:1]; NMeβAla = CN(CCC(=O)[*:2])[*:1]; NMeL = CN[C@@H](CC(C)C)C(=O)O; NMeV = CN[C@H](C(=O)O)C(C)C; NMeA = CN[C@@H](C)C(=O)O; Piperidide = C1CCN(*)CC1; dNMeA = CN[C@H](C)C(=O)O; Sar = CNCC(=O)O; tBu = CC(C)(C)*

Tests used:
[1] = Metabolic stability in human hepatic microsome; type: in vitro ADME; conditions: microsomes
[2] = PAMPA (parallel artificial membrane permeability assay); type: in vitro ADME; conditions: PAMPA
Procedure, shortened: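 Artificial membrane was 10% (w/v) egg lecithin plus 0.5% (w/v) cholesterol in dodecane on a PVDF filter. A 10 mM DMSO stock was added at 0.5% (v/v) to donor buffer (50 mM MOPSO, pH 6.5, 5.0% glycocholic acid). After 18 h at 37 °C, LC/MS or LC/UV gave donor and acceptor levels for Pe.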

[3] = pH 7.4, human hepatic microsome, NADPH(+), read-out: CL NADPH(+)
[4] = membrane permeation rate (Pe), 50 mM MOPSO buffer pH 6.5 with 5.0% glycocholic acid, 37° C., 18 hours, read-out: iPAMPA Pe

Row | SMILES | microsomal CLint at 1 uM [1, 3] [µL/min/mg] | Papp at 18 hours, 50 µM [2, 4] [×10⁻⁶ cm/s] | microsomal CLint at 1 uM ([1]; human, pH 7.4, CL NADPH(+)) [µL/min/mg] | Papp at 18 hours, 50 µM ([2]; pH 6.5) [×10⁻⁶ cm/s]
1 | CC[C@H](C)[C@@H]1NC(=O)[C@H](CC(C)C)N(C)C(=O)[C@H](Cc2ccccc2)NC(=O)[C@H](C)N(C)C(=O)C[C@@H](C(=O)N(C)[C@@H](Cc2ccccc2)C(=O)N(C)[C@@H](Cc2ccccc2)C(=O)N[C@@H](C)C(=O)N2CCCCC2)NC(=O)[C@H](C(C)C)N(C)C(=O)[C@H](C)N(C)C(=O)[C@H](C)N(C)C(=O)[C@H]([C@@H](C)O)NC(=O)CN(C)C1=O [DP-394] ([NMeA]F[NMeL]I[Sar]T[NMeA][NMeA][NMeV]D[NMeF][NMeF]A-Piperidide; lactam N-10) | 10 | 22 |  | 
2 | CC[C@H](C)[C@@H]1NC(=O)[C@H](C)N(C)C(=O)[C@H](Cc2ccccc2)N(C)C(=O)[C@H](C)N(C)C(=O)C[C@@H](C(=O)N(C)[C@@H](Cc2ccccc2)C(=O)N(C)[C@@H](Cc2ccccc2)C(=O)N[C@@H](C)C(=O)N2CCCCC2)NC(=O)[C@H](C)N(C)C(=O)[C@H](CC(C)C)N(C)C(=O)[C@H](C)N(C)C(=O)[C@H]([C@@H](C)O)NC(=O)[C@H](C)N(C)C1=O [DP-395] ([NMeA][NMeF][NMeA]I[NMeA]T[NMeA][NMeL][NMeA]D[NMeF][NMeF]A-Piperidide; lactam N-10) | 23 | 19 |  | 
3 | CC(C)C[C@H]1C(=O)NCC(=O)N[C@H](C(=O)N(C)[C@@H](Cc2ccccc2)C(=O)N(C)[C@@H](Cc2ccccc2)C(=O)N[C@@H](C)C(=O)N2CCCCC2)CC(=O)N[C@@H](C)C(=O)N[C@@H]([C@@H](C)O)C(=O)N(C)[C@@H](C)C(=O)N(C)[C@@H](Cc2ccccc2)C(=O)N[C@@H](C(C)C)C(=O)N(C)[C@@H](Cc2ccccc2)C(=O)N1C [DP-396] (AT[NMeA][NMeF]V[NMeF][NMeL]GD[NMeF][NMeF]A-Piperidide; lactam N-9) |  |  | 141 | 55
4 | CC(C)C[C@H]1C(=O)N[C@@H](C(C)C)C(=O)N(C)[C@@H](Cc2ccccc2)C(=O)N(C)[C@@H](CC(C)C)C(=O)N(C)[C@@H](CC(C)C)C(=O)N[C@H](C(=O)N(C)[C@@H](Cc2ccccc2)C(=O)N(C)[C@@H](Cc2ccccc2)C(=O)N[C@@H](C)C(=O)N2CCCCC2)CC(=O)N(C)CCC(=O)N[C@@H]([C@@H](C)O)C(=O)N(C)[C@@H](C)C(=O)N1C [DP-397] ([NMeβAla]T[NMeA][NMeL]V[NMeF][NMeL][NMeL]D[NMeF][NMeF]A-Piperidide; lactam N-9) |  |  | 92 | 11
5 | CC(C)C[C@H]1C(=O)N(C)[C@@H](CC(C)C)C(=O)N[C@@H]([C@@H](C)O)C(=O)N(C)[C@@H](C)C(=O)N[C@H](C(=O)N(C)[C@@H](Cc2ccccc2)C(=O)N(C)[C@@H](Cc2ccccc2)C(=O)N[C@@H](C)C(=O)N2CCCCC2)CC(=O)N(C)CCC(=O)N(C)CC(=O)N(C)[C@@H](Cc2ccccc2)C(=O)N[C@@H](C)C(=O)N1C [DP-398] ([NMeβAla][Sar][NMeF]A[NMeL][NMeL]T[NMeA]D[NMeF][NMeF]A-Piperidide; lactam N-9) | 123 | 24 |  | 
6 | CC(C)C[C@H]1C(=O)N[C@@H](C(C)C)C(=O)N(C)[C@@H](C)C(=O)N(C)[C@@H](C)C(=O)N[C@@H]([C@@H](C)O)C(=O)N(C)[C@@H](C)C(=O)N[C@H](C(=O)N(C)[C@@H](Cc2ccccc2)C(=O)N(C)[C@@H](Cc2ccccc2)C(=O)N[C@@H](C)C(=O)N2CCCCC2)CC(=O)N(C)[C@H](C)C(=O)N(C)[C@@H](Cc2ccccc2)C(=O)N1C [DP-400] ([dNMeA][NMeF][NMeL]V[NMeA][NMeA]T[NMeA]D[NMeF][NMeF]A-Piperidide; lactam N-9) | 24 | 15 |  | 
7 | CC(C)C[C@H]1C(=O)NCC(=O)N[C@H](C(=O)N(C)[C@@H](Cc2ccccc2)C(=O)N(C)[C@@H](Cc2ccccc2)C(=O)N[C@@H](C)C(=O)N2CCCCC2)CC(=O)N[C@H](C(C)C)C(=O)N[C@@H]([C@@H](C)O)C(=O)N(C)[C@@H](C)C(=O)N(C)[C@@H](Cc2ccccc2)C(=O)N[C@@H](C(C)C)C(=O)N(C)[C@@H](Cc2ccccc2)C(=O)N1C [DP-401] ([dV]T[NMeA][NMeF]V[NMeF][NMeL]GD[NMeF][NMeF]A-Piperidide; lactam N-9) |  |  | 145 | 8.6
8 | CC(C)C[C@H]1C(=O)NCC(=O)N(C)[C@@H](Cc2ccccc2)C(=O)N(C)[C@@H](Cc2ccccc2)C(=O)N[C@@H]([C@@H](C)O)C(=O)N(C)[C@@H](C)C(=O)N[C@H](C(=O)N(C)[C@@H](Cc2ccccc2)C(=O)N(C)[C@@H](Cc2ccccc2)C(=O)N[C@@H](C)C(=O)N2CCCCC2)CC(=O)N(C)CCCC(=O)N[C@@H](C(C)C)C(=O)N1C [DP-402] ([NMeGABA]V[NMeL]G[NMeF][NMeF]T[NMeA]D[NMeF][NMeF]A-Piperidide; lactam N-9) |  |  | 185 | 24
9 | CC(C)C[C@H]1C(=O)N(C)[C@@H](C)C(=O)N(C)[C@@H](CC(C)C)C(=O)N[C@H](C(=O)N(C)[C@@H](Cc2ccccc2)C(=O)N(C)[C@@H](Cc2ccccc2)C(=O)N[C@@H](C)C(=O)N2CCCCC2)CC(=O)N(C)CCCC(=O)N[C@@H]([C@@H](C)O)C(=O)N(C)[C@@H](Cc2ccccc2)C(=O)N(C)[C@@H](CC(C)C)C(=O)N[C@@H](C(C)C)C(=O)N1C [DP-403] ([NMeGABA]T[NMeF][NMeL]V[NMeL][NMeA][NMeL]D[NMeF][NMeF]A-Piperidide; lactam N-9) | 57 | 18 |  | 
10 | CC(C)C[C@H]1C(=O)N[C@@H]([C@@H](C)O)C(=O)N[C@H](C(=O)N(C)[C@@H](Cc2ccccc2)C(=O)N(C)[C@@H](Cc2ccccc2)C(=O)N[C@@H](C)C(=O)N2CCCCC2)CC(=O)N(C)CCCC(=O)N(C)[C@@H](C)C(=O)N(C)[C@@H](Cc2ccccc2)C(=O)N[C@@H](C(C)C)C(=O)N(C)[C@@H](CC(C)C)C(=O)N(C)CC(=O)N1C [DP-404] ([NMeGABA][NMeA][NMeF]V[NMeL][Sar][NMeL]TD[NMeF][NMeF]A-Piperidide; lactam N-9) | 107 | 20 |  | 
11 | CC(C)C[C@H]1C(=O)N[C@@H]([C@@H](C)O)C(=O)N(C)[C@@H](C)C(=O)N(C)[C@@H](CC(C)C)C(=O)N[C@@H](C(C)C)C(=O)N[C@H](C(=O)N(C)[C@@H](Cc2ccccc2)C(=O)N(C)[C@@H](Cc2ccccc2)C(=O)N[C@@H](C)C(=O)N2CCCCC2)CC(=O)N(C)[C@@H](C)C(=O)N(C)[C@@H](Cc2ccccc2)C(=O)N(C)CC(=O)N1C [DP-405] ([NMeA][NMeF][Sar][NMeL]T[NMeA][NMeL]VD[NMeF][NMeF]A-Piperidide; lactam N-9) | 83 | 26 |  | 
12 | CC(C)C[C@H]1C(=O)N[C@@H]([C@@H](C)O)C(=O)N[C@H](C(=O)N(C)[C@@H](Cc2ccccc2)C(=O)N(C)[C@@H](Cc2ccccc2)C(=O)N[C@@H](C)C(=O)N2CCCCC2)CC(=O)N(C)[C@@H](C)C(=O)N(C)CC(=O)N(C)[C@@H](Cc2ccccc2)C(=O)N(C)[C@@H](C)C(=O)N[C@@H](C)C(=O)N(C)[C@@H](C)C(=O)N1C [DP-406] ([NMeA][Sar][NMeF][NMeA]A[NMeA][NMeL]TD[NMeF][NMeF]A-Piperidide; lactam N-9) | 11 | 4.4 |  | 
13 | CC(C)C[C@H]1C(=O)N[C@@H](C(C)C)C(=O)N[C@H](C(=O)N(C)[C@@H](Cc2ccccc2)C(=O)N(C)[C@@H](Cc2ccccc2)C(=O)N[C@@H](C)C(=O)N2CCCCC2)CC(=O)N(C)CC(=O)N(C)[C@@H](CC(C)C)C(=O)N(C)[C@@H](Cc2ccccc2)C(=O)N[C@@H]([C@@H](C)O)C(=O)N(C)[C@@H](C)C(=O)N(C)CC(=O)N1C [DP-407] ([Sar][NMeL][NMeF]T[NMeA][Sar][NMeL]VD[NMeF][NMeF]A-Piperidide; lactam N-9) | 29 | 38 |  | 
14 | CC(C)C[C@@H]1NC(=O)[C@H](C)N(C)C(=O)[C@H](C(C)C)N(C)C(=O)CN(C)C(=O)[C@H](Cc2ccccc2)NC(=O)[C@H](C(C)C)N(C)C(=O)[C@H](C)N(C)C(=O)[C@H]([C@@H](C)O)NC(=O)[C@H](Cc2ccccc2)N(C)C(=O)[C@H](C)NC(=O)CCN(C)C(=O)C[C@@H](C(=O)N2CCCCC2)NC1=O [DP-408] ([NMeβAla]A[NMeF]T[NMeA][NMeV]F[Sar][NMeV][NMeA]LD-Piperidide; lactam N-12) |  |  | 14 | 1.9
15 | CC(C)C[C@H]1C(=O)N(C)[C@@H](C)C(=O)N[C@@H]([C@@H](C)O)C(=O)N(C)[C@@H](C)C(=O)N(C)[C@@H](C(C)C)C(=O)N[C@@H](COC(C)(C)C)C(=O)N[C@H](C(=O)N2CCCCC2)CC(=O)N(C)[C@H](C)C(=O)N(C)[C@@H](Cc2ccccc2)C(=O)N[C@@H](C)C(=O)N(C)[C@@H](C)C(=O)N[C@@H](Cc2ccccc2)C(=O)N1C [DP-409] ([dNMeA][NMeF]A[NMeA]F[NMeL][NMeA]T[NMeA][NMeV]S(tBu)D-Piperidide; lactam N-12) |  |  | 28 | 13
16 | CC(C)C[C@H]1C(=O)N(C)[C@@H](C(C)C)C(=O)N[C@@H](C(C)C)C(=O)N(C)CC(=O)N(C)[C@@H](C)C(=O)N[C@@H]([C@@H](C)O)C(=O)N(C)[C@@H](C)C(=O)N[C@H](C(=O)N2CCCCC2)CC(=O)N(C)[C@@H](C)C(=O)N(C)[C@@H](C)C(=O)N(C)[C@@H](Cc2ccccc2)C(=O)N[C@@H](C)C(=O)N1C [DP-410] ([NMeA][NMeA][NMeF]A[NMeL][NMeV]V[Sar][NMeA]T[NMeA]D-Piperidide; lactam N-12) | 19 | 1.4 |  | 
17 | CC[C@H](C)[C@@H]1NC(=O)[C@H](CC(C)C)NC(=O)CCN(C)C(=O)C[C@@H](C(=O)N2CCCCC2)NC(=O)[C@H](CC(C)C)NC(=O)[C@H](Cc2ccccc2)NC(=O)[C@H]([C@@H](C)O)NC(=O)[C@H](CC(C)C)NC(=O)[C@H](C(C)C)NC(=O)[C@H](CC(C)C)NC(=O)CN(C)C1=O [DP-411] ([NMeβAla]LI[Sar]LVLTFLD-Piperidide; lactam N-11) | 114 | 8.4 |  | 
